Experimental data as given in ChEMBL document CHEMBL1155876 (J Med Chem, 2008).

Legend:
[1] = molecular target: Angiopoietin-1 receptor (Homo sapiens) (UniProt Q02763); experiment: Inhibition of human Tie2 kinase assessed as residual enzyme activity at 0.1 uM
[2] = molecular target: Tyrosine-protein kinase ABL1 (Homo sapiens) (UniProt P00519); experiment: Inhibition of human Abl assessed as residual enzyme activity at 0.1 uM
[3] = molecular target: Mitogen-activated protein kinase 8 (Homo sapiens) (UniProt P45983); experiment: Inhibition of human JNK1alpha1 assessed as residual enzyme activity at 0.1 uM
[4] = molecular target: Casein kinase I isoform delta (Homo sapiens) (UniProt P48730); experiment: Inhibition of human CK1delta kinase assessed as residual enzyme activity at 0.1 uM
[5] = molecular target: Vascular endothelial growth factor receptor 1 (Homo sapiens) (UniProt P17948); experiment: Inhibition of human Flt1 assessed as residual enzyme activity at 0.1 uM
[6] = molecular target: Myosin light chain kinase, smooth muscle (Homo sapiens) (UniProt Q15746); experiment: Inhibition of human MLCK kinase assessed as residual enzyme activity at 0.1 uM

Chain of Angiopoietin-1 receptor (Homo sapiens) (Q02763 whole entry): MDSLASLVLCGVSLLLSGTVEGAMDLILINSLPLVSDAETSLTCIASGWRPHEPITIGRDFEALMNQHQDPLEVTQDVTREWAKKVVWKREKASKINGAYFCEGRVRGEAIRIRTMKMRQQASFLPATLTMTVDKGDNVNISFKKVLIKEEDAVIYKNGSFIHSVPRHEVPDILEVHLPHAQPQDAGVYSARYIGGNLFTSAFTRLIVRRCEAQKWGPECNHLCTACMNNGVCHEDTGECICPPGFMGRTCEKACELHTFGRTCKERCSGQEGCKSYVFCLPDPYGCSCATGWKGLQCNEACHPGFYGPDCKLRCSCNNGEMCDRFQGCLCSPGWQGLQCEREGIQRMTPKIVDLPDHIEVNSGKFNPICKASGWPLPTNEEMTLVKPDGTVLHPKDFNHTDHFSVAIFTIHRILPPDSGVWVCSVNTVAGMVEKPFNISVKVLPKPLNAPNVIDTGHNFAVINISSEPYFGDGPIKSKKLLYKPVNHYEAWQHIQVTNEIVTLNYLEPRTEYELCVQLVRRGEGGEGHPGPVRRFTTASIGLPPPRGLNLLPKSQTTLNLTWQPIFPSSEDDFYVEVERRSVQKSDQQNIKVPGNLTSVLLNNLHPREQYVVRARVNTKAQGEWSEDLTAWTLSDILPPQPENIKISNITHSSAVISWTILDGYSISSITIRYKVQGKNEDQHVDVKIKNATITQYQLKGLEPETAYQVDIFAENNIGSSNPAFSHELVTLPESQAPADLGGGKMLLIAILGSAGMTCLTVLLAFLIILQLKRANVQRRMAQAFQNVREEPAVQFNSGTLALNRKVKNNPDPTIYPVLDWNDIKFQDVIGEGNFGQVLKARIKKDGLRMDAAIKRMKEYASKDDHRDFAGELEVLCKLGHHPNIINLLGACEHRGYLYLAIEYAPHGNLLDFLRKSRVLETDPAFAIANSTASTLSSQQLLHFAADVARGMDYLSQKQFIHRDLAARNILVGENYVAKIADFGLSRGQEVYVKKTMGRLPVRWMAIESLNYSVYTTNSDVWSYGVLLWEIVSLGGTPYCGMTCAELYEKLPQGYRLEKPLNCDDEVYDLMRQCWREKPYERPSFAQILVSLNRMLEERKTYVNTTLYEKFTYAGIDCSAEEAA
Chain of Casein kinase I isoform delta (Homo sapiens) (P48730 whole entry, looked up, canonical isoform): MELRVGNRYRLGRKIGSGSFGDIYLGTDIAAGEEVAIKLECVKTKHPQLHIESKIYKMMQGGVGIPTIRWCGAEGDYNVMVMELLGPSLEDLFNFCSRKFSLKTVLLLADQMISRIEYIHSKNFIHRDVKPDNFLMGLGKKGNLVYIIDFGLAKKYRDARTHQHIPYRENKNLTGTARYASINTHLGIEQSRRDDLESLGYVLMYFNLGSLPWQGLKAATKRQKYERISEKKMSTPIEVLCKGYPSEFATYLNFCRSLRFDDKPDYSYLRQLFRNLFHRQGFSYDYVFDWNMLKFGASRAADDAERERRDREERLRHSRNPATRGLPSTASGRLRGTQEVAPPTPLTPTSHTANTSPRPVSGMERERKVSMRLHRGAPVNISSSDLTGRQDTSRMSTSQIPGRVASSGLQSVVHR
Chain of Vascular endothelial growth factor receptor 1 (Homo sapiens) (P17948 whole entry): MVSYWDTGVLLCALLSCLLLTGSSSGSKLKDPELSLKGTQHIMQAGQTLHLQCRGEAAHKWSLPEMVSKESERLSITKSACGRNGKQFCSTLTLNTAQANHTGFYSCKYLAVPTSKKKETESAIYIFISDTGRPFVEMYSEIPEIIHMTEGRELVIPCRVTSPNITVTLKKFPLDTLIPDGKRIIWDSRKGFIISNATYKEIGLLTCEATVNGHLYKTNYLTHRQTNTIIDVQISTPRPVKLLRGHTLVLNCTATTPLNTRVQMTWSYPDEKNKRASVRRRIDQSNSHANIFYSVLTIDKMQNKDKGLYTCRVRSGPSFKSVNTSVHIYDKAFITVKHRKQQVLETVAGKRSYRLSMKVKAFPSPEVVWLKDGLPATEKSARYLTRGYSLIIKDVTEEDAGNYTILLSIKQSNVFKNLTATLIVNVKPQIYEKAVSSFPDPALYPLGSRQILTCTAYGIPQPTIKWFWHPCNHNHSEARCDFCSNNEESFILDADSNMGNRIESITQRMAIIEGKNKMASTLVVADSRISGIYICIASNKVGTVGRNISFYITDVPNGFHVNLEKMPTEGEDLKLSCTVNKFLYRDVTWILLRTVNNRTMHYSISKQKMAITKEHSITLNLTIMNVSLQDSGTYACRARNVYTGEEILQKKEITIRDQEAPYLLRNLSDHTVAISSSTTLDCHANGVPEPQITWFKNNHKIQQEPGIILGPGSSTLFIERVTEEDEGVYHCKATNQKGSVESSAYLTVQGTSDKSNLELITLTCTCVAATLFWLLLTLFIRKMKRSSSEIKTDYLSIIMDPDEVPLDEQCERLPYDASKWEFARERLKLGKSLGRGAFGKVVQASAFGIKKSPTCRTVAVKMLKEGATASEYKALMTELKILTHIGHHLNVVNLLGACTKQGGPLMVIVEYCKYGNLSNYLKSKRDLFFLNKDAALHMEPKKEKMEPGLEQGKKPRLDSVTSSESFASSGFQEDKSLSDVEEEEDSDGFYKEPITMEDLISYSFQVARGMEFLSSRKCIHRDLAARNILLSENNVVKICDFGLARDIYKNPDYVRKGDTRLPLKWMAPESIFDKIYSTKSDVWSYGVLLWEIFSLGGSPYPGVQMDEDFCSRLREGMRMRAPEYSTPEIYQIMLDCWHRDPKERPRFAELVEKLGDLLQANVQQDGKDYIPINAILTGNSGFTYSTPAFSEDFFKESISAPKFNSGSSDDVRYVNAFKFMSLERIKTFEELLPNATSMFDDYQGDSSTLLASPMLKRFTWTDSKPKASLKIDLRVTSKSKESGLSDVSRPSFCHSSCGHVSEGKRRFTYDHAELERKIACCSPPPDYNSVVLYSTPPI
Chain of Tyrosine-protein kinase ABL1 (Homo sapiens) (P00519 whole entry): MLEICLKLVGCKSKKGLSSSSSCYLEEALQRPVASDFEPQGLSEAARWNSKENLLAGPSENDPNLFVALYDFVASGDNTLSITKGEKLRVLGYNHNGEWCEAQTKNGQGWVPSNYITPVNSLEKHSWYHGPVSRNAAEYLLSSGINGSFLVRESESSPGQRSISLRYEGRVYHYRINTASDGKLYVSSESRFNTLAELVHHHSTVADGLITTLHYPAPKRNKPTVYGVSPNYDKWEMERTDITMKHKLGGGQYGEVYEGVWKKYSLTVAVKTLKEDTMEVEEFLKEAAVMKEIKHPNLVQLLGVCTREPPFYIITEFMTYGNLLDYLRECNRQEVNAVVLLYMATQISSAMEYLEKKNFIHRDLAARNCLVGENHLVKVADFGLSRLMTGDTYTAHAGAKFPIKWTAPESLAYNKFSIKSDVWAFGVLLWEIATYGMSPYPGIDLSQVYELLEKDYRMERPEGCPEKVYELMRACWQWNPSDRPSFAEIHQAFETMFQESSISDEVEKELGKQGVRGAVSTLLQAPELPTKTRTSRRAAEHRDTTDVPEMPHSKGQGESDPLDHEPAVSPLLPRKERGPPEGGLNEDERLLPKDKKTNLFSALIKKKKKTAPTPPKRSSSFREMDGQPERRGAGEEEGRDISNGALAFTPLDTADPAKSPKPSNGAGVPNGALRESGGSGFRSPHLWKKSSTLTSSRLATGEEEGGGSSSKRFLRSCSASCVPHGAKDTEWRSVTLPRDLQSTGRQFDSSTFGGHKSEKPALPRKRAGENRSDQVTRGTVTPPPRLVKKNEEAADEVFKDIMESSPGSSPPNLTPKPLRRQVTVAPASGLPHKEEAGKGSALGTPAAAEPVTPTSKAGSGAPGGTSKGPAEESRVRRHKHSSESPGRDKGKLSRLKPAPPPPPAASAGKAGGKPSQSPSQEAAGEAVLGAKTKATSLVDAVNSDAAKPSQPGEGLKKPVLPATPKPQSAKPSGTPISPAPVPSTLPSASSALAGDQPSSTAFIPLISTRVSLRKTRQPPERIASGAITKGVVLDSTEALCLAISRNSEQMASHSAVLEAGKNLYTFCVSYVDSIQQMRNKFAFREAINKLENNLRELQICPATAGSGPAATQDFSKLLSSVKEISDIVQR
Chain of Mitogen-activated protein kinase 8 (Homo sapiens) (P45983 whole entry, canonical isoform): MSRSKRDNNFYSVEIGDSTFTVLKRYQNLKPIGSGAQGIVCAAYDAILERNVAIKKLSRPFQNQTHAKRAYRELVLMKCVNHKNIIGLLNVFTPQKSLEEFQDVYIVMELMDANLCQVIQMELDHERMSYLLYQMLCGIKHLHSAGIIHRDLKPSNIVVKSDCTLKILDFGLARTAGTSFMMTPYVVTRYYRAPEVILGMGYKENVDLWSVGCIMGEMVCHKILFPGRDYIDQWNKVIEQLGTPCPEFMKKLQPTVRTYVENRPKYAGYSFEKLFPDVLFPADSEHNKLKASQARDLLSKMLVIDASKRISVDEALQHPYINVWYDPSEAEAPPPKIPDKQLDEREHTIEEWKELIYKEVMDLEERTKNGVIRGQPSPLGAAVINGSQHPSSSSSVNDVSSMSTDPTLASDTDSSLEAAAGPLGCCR

## CCN1C(=O)C(C)(C)c2cc3[nH]c4c(c3cc21)CCCc1c(C)n[nH]c1-4
[1]
  Activity: 75%
[2]
  Activity: 71%
[3]
  Activity: 109%
[4]
  Activity: 96%
[5]
  Activity: 13%
[6]
  Activity: 102%
